# Reference: paper PMC11876671, “Investigating blood–brain barrier penetration and neurotoxicity of natural products for central nervous system drug development” (Scientific Reports, 2025)
# Where a name gives a salt, the structure may show the parent alone. Where a SMILES comes first, the peptide text is derived from it. [ ]: non-standard residue; d: D form. The star is where a group is joined. X2 = CCC(C)(C)NCCN(CCNC(C)(C)/C(C)=N/O)CCN*; Tyr(3-I) = N[C@@H](Cc1ccc(O)c(I)c1)C(=O)O
# Assay: in vitro
# Settings: PAMPA, PAMPA-BBB Pe
row,SMILES,Papp
1,CC[C@H](C)C(=O)O[C@H]1CCC=C2C=C[C@H](C)[C@H](CC[C@@H]3C[C@@H](O)CC(=O)O3)[C@H]21 [MEVASTATIN],14 ×10⁻⁶ cm/s
2,O=C1C[C@@H]2OCC=C3CN4CC[C@]56c7ccccc7N1[C@H]5[C@H]2[C@H]3C[C@H]46 [[…]],13 ×10⁻⁶ cm/s
3,COc1ccc2[nH]c3c(c2c1)CCNC3C (stereo not drawn) [ADRENOGLOMERULOTROPIN],23 ×10⁻⁶ cm/s
4,CC(C)(O)CC[C@@H](O)[C@](C)(O)[C@H]1CC[C@@]2(O)C3=CC(=O)[C@@H]4C[C@@H](O)[C@@H](O)C[C@]4(C)[C@H]3CC[C@]12C [COMMISTERONE],14 ×10⁻⁶ cm/s

# Same assay, conditions: PAMPA, PAMPA-BBB Pe(10^-6 cm/sec)
row,SMILES,Papp
1,CO[C@@H]1[C@H](O)[C@@H](CO)O[C@H]1n1cnc2c(=O)[nH]c(N)nc21 [2'-O-METHYLGUANOSINE],< 1 ×10⁻⁶ cm/s
2,C[C@]12C=CC(=O)C=C1[C@@H](F)C[C@@H]1[C@@H]2[C@@H](O)C[C@@]2(C)[C@H]1CC[C@]2(O)C(=O)CO [FLUPREDNISOLONE],1.9 ×10⁻⁶ cm/s
3,CN(C)[C@@H]1C(O)=C(C(N)=O)C(=O)[C@@]2(O)C(O)=C3C(=O)c4c(O)ccc(Cl)c4[C@@H](O)[C@H]3C[C@@H]12 [DEMECLOCYCLINE HYDROCHLORIDE],1.5 ×10⁻⁶ cm/s
4,C[C@H]1C[C@H]2[C@@H]3CCC4=CC(=O)C=C[C@]4(C)[C@H]3C(=O)C[C@]2(C)[C@@]1(O)C(=O)CO [MEPREDNISONE],3.7 ×10⁻⁶ cm/s
5,C[n+]1cccc(C(=O)[O-])c1 [TRIGONELLINE],< 1 ×10⁻⁶ cm/s
6,CNCC(O)c1ccc(O)c(O)c1 (stereo not drawn) [RACEPINEPHRINE HYDROCHLORIDE],< 1 ×10⁻⁶ cm/s
7,O=c1ccc2ccc(O)cc2o1 [UMBELLIFERONE],< 1 ×10⁻⁶ cm/s

# Same assay, conditions: PAMPA, PAMPA-BBB Pe(10^-6 cm/sec), Table S3: compounds exhibiting low PAMPA-BBB permeability
row,SMILES,Papp
1,"COC1=CC(=O)C=C(OC)C1=O [2,6-DIMETHOXY-1,4-BENZOQUINONE]",< 1 ×10⁻⁶ cm/s
2,CO[C@@H]1[C@@H](O[C@@H]2O[C@H](C)[C@@H](O[C@H]3C[C@@](C)(O)[C@@H](O)[C@H](C)O3)[C@H](N(C)C)[C@H]2O)[C@@H](CC=O)C[C@@H](C)[C@@H](O[C@H]2CC[C@H](N(C)C)[C@@H](C)O2)/C=C/C=C/C[C@@H](C)OC(=O)C[C@H]1OC(C)=O [SPIRAMYCIN II],7.6 ×10⁻⁶ cm/s
3,COC1=C[C@@H]2C3=C([C@@H]2C1=O)[C@@H](NC(C)=O)CCc1cc(OC)c(OC)c(OC)c13 [β-Lumicolchicine],3.6 ×10⁻⁶ cm/s
4,COc1ccc2cc3[n+](cc2c1OC)CCc1cc2c(cc1-3)OCO2 [BERBERINE HYDROCHLORIDE],< 1 ×10⁻⁶ cm/s
5,CC(=O)Nc1c2sscc-2n(C)c1=O [THIOLUTIN],< 1 ×10⁻⁶ cm/s
6,O=C(O)c1ccc2c(c1)OCO2 [PIPERONYLIC ACID],< 1 ×10⁻⁶ cm/s
7,Cc1ncsc1CCO [HEMINEURINE],< 1 ×10⁻⁶ cm/s
8,Oc1cc(O)c2c(c1)O[C@H](c1cc(O)c(O)c(O)c1)[C@@H](O)C2 [GALLOCATECHIN],< 1 ×10⁻⁶ cm/s
9,OC[C@H]1O[C@@H](OC[C@H]2O[C@@H](OC/C=C/c3ccccc3)[C@H](O)[C@@H](O)[C@@H]2O)[C@@H](O)[C@@H]1O [ROSARIN],< 1 ×10⁻⁶ cm/s
10,COC1=C2C[C@@H](C)C[C@H](OC)[C@H](O)[C@@H](C)/C=C(\C)[C@H](OC(N)=O)[C@@H](OC)/C=C\C=C(/C)C(=O)NC(=CC1=O)C2=O [GELDANAMYCIN],< 1 ×10⁻⁶ cm/s
11,COc1cc2c(cc1O)C[C@@H]1NCCc3cc(OC)c(OC)c-2c31 [LAUROTETANINE],< 1 ×10⁻⁶ cm/s
12,O=C(Nc1ccccc1C(=O)O)c1ccccc1 [[…] B],1.9 ×10⁻⁶ cm/s
13,COC(=O)C1=CO[C@@H](O[C@@H]2O[C@H](CO)[C@@H](O)[C@H](O)[C@H]2O)[C@@H]2[C@@H](C)[C@@H](O)C[C@H]12 [LOGANIN],< 1 ×10⁻⁶ cm/s
14,"O=C(O)/C=C/c1ccc2c(c1)OCO2 [3,4-METHYLENEDIOXYCINNAMIC ACID]",< 1 ×10⁻⁶ cm/s
15,C[C@@H]1Cc2c(Cl)cc(C(=O)N[C@@H](Cc3ccccc3)C(=O)O)c(O)c2C(=O)O1 [[…]],1.6 ×10⁻⁶ cm/s
16,CC1CC(C)C(=O)C1=O (stereo not drawn),2.7 ×10⁻⁶ cm/s
17,Nc1ncn([C@@H]2O[C@H](CO)[C@@H](O)[C@H]2O)c(=O)n1 [AZACITIDINE],< 1 ×10⁻⁶ cm/s
18,CSCCCN=C=S [IBERVERIN],9.7 ×10⁻⁶ cm/s
19,COc1c(O)cc2c(c1O)[C@@H]1O[C@H](CO)[C@@H](O)[C@H](O)[C@H]1OC2=O [BERGENIN],< 1 ×10⁻⁶ cm/s

row,SMILES,Papp
1,N[C@H](C(=O)O)c1cc(O)cc(O)c1 [DIHYDROXYPHENYLGLYCINE],< 1 ×10⁻⁶ cm/s
2,Oc1ccc(/C=C/c2cc(O)cc(O)c2)cc1 [RESVERATROL],1.8 ×10⁻⁶ cm/s
3,"NC(Cc1cc(O)c(O)cc1O)C(=O)O (racemic) [2,4,5-TRIHYDROXY-DL-PHENYLALANINE]",9.3 ×10⁻⁶ cm/s
4,O=C(O)c1cccc(O)c1O [PYR[…]],< 1 ×10⁻⁶ cm/s
5,COc1ccc([C@@H]2CC(=O)c3c(O)cc(O[C@@H]4O[C@H](CO)[C@@H](O)[C@H](O)[C@H]4O[C@@H]4O[C@@H](C)[C@H](O)[C@@H](O)[C@H]4O)cc3O2)cc1O [NEOHESPERIDIN],< 1 ×10⁻⁶ cm/s
6,"O=C(O[C@@H]1Cc2c(O)cc(O)cc2O[C@H]1c1cc(O)c(O)c(O)c1)c1cc(O)c(O)c(O)c1 [GALLOCATECHIN GALLATE, (-)-]",< 1 ×10⁻⁶ cm/s
7,COc1ccc(-c2cc(=O)c3c(O)c(OC)c(O[C@@H]4O[C@H](CO[C@@H]5O[C@@H](C)[C@H](O)[C@@H](O)[C@H]5O)[C@@H](O)[C@H](O)[C@H]4O)cc3o2)cc1 [PECTOLINARIN],< 1 ×10⁻⁶ cm/s
8,CNc1ncnc2c1ncn2C1OC(CO)C(O)C1O (stereo not drawn) [N-METHYLADENOSINE],< 1 ×10⁻⁶ cm/s
9,CC(=O)OCC1=C(C(=O)O)N2C(=O)C(N)C2SC1 (stereo not drawn) [7-Aminocephalosporanic acid],< 1 ×10⁻⁶ cm/s
10,C=C/C(C)=C/C/C=C(\C)CCC=C(C)C,< 1 ×10⁻⁶ cm/s
11,CC1=C(/C=C/C(C)=C/C=C/C(C)=C/C=C/C=C(C)/C=C/C=C(C)/C=C/C2=C(C)C[C@@H](O)CC2(C)C)C(C)(C)C[C@H](O)C1 [ZEAXANTHIN],2.1 ×10⁻⁶ cm/s
12,c1cncc([C@@H]2CCCN2)c1 [NORNICOTINE],8.4 ×10⁻⁶ cm/s
13,Cc1ncc(CO)c(CO)c1O [[…]],< 1 ×10⁻⁶ cm/s
14,O=c1c(-c2ccc(O)cc2)coc2c([C@@H]3O[C@H](CO)[C@@H](O)[C@H](O)[C@H]3O)c(O)ccc12 [PUERARIN],< 1 ×10⁻⁶ cm/s
15,Cc1coc2c1C(=O)C(=O)c1c-2ccc2c(C)cccc12 [TANSHINONE I],6.8 ×10⁻⁶ cm/s
16,COc1ccc(O[C@@H]2O[C@H](CO)[C@H](O)[C@H](O)[C@H]2O)cc1 [4-METHOXYPHENYL .BETA.-D-GLUCOSIDE],1.3 ×10⁻⁶ cm/s
17,CC(=O)NCCc1c[nH]c2ccc(O)cc12 [NORMELATONIN],< 1 ×10⁻⁶ cm/s
18,COC1=C[C@@H]2[C@@H]3Cc4ccc(OC)c(O)c4[C@]2(CCN3C)CC1=O [SINOMENINE],2.2 ×10⁻⁶ cm/s

# Same assay, conditions: PAMPA, PAMPA-BBB Pe, Table S2: compounds exhibiting moderate to high PAMPA-BBB permeability
row,SMILES,Papp
1,COC(=O)C1=CO[C@@H](C)[C@@H]2CN3CCc4c([nH]c5ccccc45)[C@@H]3C[C@H]12 [TETRAHYDROALSTONINE],> 530 ×10⁻⁶ cm/s
2,COc1ccccc1/C=C/C=O [2'-METHOXYCINNAMALDEHYDE],122 ×10⁻⁶ cm/s
3,O=[N+]([O-])c1c(Cl)cccc1-c1c[nH]cc1Cl [PYRROLNITRIN],159 ×10⁻⁶ cm/s
4,O=C1c2ccccc2-n2c1nc1ccccc1c2=O [[…]],141 ×10⁻⁶ cm/s
5,"CNC(=O)Nc1ccc(Cl)c(Cl)c1 [3,4-DCPMU]",115 ×10⁻⁶ cm/s
6,COc1ccc(-c2cc(=O)c3c(O)cc(O)c(-c4cc(-c5cc(=O)c6c(O)cc(OC)cc6o5)ccc4OC)c3o2)cc1 [SCIADOPITYSIN],20 ×10⁻⁶ cm/s
7,C[C@]12CCC(=O)C=C1[C@@H]1C[C@@H]1[C@H]1[C@@H]3[C@@H]4C[C@@H]4[C@@]4(CCC(=O)O4)[C@@]3(C)CC[C@@H]12 [DROSPIRENONE],169 ×10⁻⁶ cm/s
8,CC1=CC(=O)C2=C(C)CC[C@@H]3[C@H](OC(=O)[C@H]3C)[C@@H]12 [LEUKOMISIN],57 ×10⁻⁶ cm/s
9,O=C1c2c(O)cc(O)cc2O[C@@H](c2ccc(O)cc2)[C@@H]1O [AROMADENDRINE],58 ×10⁻⁶ cm/s
10,COc1ccc(-c2oc3cc(O[C@@H]4O[C@H](CO)[C@@H](O)[C@H](O)[C@H]4O)c(OC)c(O)c3c(=O)c2OC)cc1O [CENTAUREIN],38 ×10⁻⁶ cm/s
11,O=c1c(O)c(-c2ccccc2)oc2ccccc12 [FLAVONOL],181 ×10⁻⁶ cm/s
12,CCC(C)(C)NCCN(CCNC(=O)CNC(=O)[C@H](CCCCN)NC(=O)[C@H](CC(C)C)NC(=O)[C@H](CC(C)C)NC(=O)[C@@H](NC(=O)[C@H](Cc1ccc(O)c(I)c1)NC(=O)[C@@H]1CCCN1C(=O)[C@H](CO)NC(=O)[C@@H](NC(=O)[C@H](CCC(N)=O)NC(=O)[C@H](CCC(=O)O)NC(=O)[C@H](CCC(N)=O)NC(=O)[C@H](CC(N)=O)NC(C)=O)C(C)C)[C@@H](C)O)CCNC(C)(C)/C(C)=N/O (Ac-NQEQVSP[Tyr(3-I)]TLLKG-X2),155 ×10⁻⁶ cm/s
13,CC[C@H](C)[C@H]1O[C@]2(C=C[C@@H]1C)C[C@@H]1C[C@@H](C/C=C(\C)[C@@H](O[C@H]3C[C@H](OC)[C@@H](O[C@H]4C[C@H](OC)[C@@H](O)[C@H](C)O4)[C@H](C)O3)[C@@H](C)/C=C/C=C3\CO[C@@H]4[C@H](O)C(C)=C[C@@H](C(=O)O1)[C@]34O)O2 [ABAMECTIN B1A],35 ×10⁻⁶ cm/s
14,COC1=CC(=O)O[C@@H](/C=C/c2ccc3c(c2)OCO3)C1 [METHYSTICIN],104 ×10⁻⁶ cm/s
15,COC1=CC(=O)O[C@@H](/C=C/c2ccccc2)C1 [KAWAIN],114 ×10⁻⁶ cm/s
16,COc1cc2c(cc1O)C[C@H]1c3c(cc(OC)c(O)c3-2)CCN1C [ISOBOLDINE],35 ×10⁻⁶ cm/s
17,CCCCc1ccc(O)cc1 [4-BUTYLPHENOL],116 ×10⁻⁶ cm/s
18,O=Cc1ccco1 [FURFURAL],46 ×10⁻⁶ cm/s
19,"COc1cccc(OC)c1C(=O)O [2,6-DIMETHOXYBENZOIC ACID]",24 ×10⁻⁶ cm/s
20,CC1(C)C2=CCCC(C)(C)[C@]23CC[C@H]1C3 [ISOLONGIFOLENE],87 ×10⁻⁶ cm/s
21,C[C@]12CC[C@H]3[C@@H](CCC4=CC(=O)CC[C@@]43C)[C@@H]1CC[C@@H]2C(=O)CO [DESOXYCORTICOSTERONE],65 ×10⁻⁶ cm/s
22,COc1cc(-c2oc3cc(O)ccc3c(=O)c2O)ccc1O [GERALDOL],124 ×10⁻⁶ cm/s
23,Cn1cnc2c(NCc3ccccc3)nc(NCCO)nc21 [OLOMOUCINE],10 ×10⁻⁶ cm/s
24,CCOC(=O)/C=C/c1ccccc1 [ETHYL CINNAMATE],110 ×10⁻⁶ cm/s
25,CC1=C2[C@H]3OC(=O)[C@@H](C)[C@@H]3CC[C@@]2(C)C=CC1=O [SANTONINUM],49 ×10⁻⁶ cm/s
26,CCCCCCCCC(=O)NCc1ccc(O)c(OC)c1 [NONIVAMIDE],125 ×10⁻⁶ cm/s
27,CC(C)=CCOc1c2occc2cc2ccc(=O)oc12 [PENTOSALEN],195 ×10⁻⁶ cm/s
